The values that follow come from ChEMBL document CHEMBL3132836, “Structure-based drug design of chromone antagonists of the adenosine A2A receptor” (Medchemcomm, 2014).

The target of one series is Adenosine receptor A2a (Homo sapiens, UniProt P29274). Put plainly: Displacement of [3H]ZM241385 from human adenosine A2A receptor expressed in HEK293 cells after 1 hr by liquid scintillation counting. In kind it is cell-based. For orientation: In a radioligand displacement assay an active substance lowers the binding of a labelled ligand.
For a further series, the system named is CHO. Put plainly: Selectivity ratio of Ki for human adenosine A1 receptor expressed in CHO cells to Ki for human adenosine A2A receptor expressed in HEK293 cells. It counts as cell-based.
Series [1] can be described thus: Half life in Sprague-Dawley rat liver microsomes at 3 uM by LC-MS analysis. It counts as ADME. On the technique in general: Microsomes from liver hold many membrane-bound enzymes, among them those of drug oxidation.
The target of another series is T1, Adenosine receptor A3 (Homo sapiens, UniProt P0DMS8).
T1 sequence (P0DMS8 whole entry): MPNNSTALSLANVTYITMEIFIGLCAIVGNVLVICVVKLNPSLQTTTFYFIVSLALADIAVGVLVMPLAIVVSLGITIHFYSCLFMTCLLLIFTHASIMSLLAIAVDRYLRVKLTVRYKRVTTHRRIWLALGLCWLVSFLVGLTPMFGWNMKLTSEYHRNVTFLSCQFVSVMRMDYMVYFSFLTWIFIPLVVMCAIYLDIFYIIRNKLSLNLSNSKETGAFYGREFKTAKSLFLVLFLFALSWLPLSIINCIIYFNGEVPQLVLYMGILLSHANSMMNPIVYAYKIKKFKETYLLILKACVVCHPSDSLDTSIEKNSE
The series can be described thus: Displacement of [125I]AB-MECA from adenosine A3 receptor (unknown origin) expressed in CHO-K1 cells after 60 mins. It counts as cell-based.

The next series has as its target T2, Adenosine receptor A2b (Homo sapiens, UniProt P29275).
T2 sequence (P29275 whole entry): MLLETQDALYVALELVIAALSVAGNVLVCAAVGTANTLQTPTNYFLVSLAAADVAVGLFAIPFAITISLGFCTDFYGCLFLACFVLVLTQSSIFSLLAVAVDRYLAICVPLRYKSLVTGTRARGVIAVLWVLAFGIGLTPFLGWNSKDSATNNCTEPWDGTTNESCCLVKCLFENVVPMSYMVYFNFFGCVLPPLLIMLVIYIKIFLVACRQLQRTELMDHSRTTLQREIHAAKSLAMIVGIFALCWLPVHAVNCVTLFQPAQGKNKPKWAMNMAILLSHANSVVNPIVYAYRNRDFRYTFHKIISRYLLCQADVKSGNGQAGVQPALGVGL
Put plainly: Displacement of [3H]MRS1754 from adenosine A2B receptor (unknown origin) expressed in HEK293 cells after 90 mins. In kind it is cell-based.

The target of a further series is T3, Adenosine receptor A1 (Homo sapiens, UniProt P30542).
T3 sequence (P30542 whole entry): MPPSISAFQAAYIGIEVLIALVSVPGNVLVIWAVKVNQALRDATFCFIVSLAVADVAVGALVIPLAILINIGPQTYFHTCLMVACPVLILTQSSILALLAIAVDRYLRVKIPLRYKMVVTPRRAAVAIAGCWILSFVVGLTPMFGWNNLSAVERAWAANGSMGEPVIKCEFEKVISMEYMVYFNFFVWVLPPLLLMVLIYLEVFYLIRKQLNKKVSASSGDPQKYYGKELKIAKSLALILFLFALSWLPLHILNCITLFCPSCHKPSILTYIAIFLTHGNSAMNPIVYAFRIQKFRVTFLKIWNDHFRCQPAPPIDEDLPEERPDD
The series can be described thus: Displacement of [3H]DPCPX from human adenosine A1 receptor expressed in CHO cells after 1 hr by liquid scintillation counting. In kind it is cell-based.

Some results are limits rather than exact numbers.

In general, half-life refers to the time needed for the level to fall by half in the phase considered. A lower half-life goes with fast loss. Usually IC50 stands for the concentration that gives 50% inhibition.

Adenosine receptor A2a, sequence (P29274 whole entry): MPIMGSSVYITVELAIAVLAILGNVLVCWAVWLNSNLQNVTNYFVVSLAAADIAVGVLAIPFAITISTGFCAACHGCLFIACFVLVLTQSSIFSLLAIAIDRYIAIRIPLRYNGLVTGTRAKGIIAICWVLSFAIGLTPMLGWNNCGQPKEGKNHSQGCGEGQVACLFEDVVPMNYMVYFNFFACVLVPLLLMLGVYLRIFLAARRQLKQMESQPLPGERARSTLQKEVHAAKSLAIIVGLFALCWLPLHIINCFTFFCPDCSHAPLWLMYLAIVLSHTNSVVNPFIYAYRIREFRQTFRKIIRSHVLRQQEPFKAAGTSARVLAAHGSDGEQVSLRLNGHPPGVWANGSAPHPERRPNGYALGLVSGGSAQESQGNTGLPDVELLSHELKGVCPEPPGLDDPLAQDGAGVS

On to `C#CCCCOc1cc(C)c2c(=O)c(-c3nc(C)cs3)coc2c1`, for which, on Adenosine receptor A2a (read-out: pKi (converted)), the Ki is 0.0251 µM. `Cc1csc(-c2coc3cc(OCC(=O)O)cc(C)c3c2=O)n1`: the Ki on Adenosine receptor A2a (read-out: pKi (converted)) was 2 µM.

As to `CCc1cc2c(=O)c(-c3nc(C)cs3)coc2cc1O`, the Ratio Ki with CHO was above 100. In addition, the Ki on Adenosine receptor A2a (read-out: pKi (converted)) was 0.0794 µM. For `CCCc1cc2c(=O)c(-c3csc(C)n3)coc2cc1O`, the Ki at Adenosine receptor A2a (read-out: pKi (converted)) was 0.0316 µM.

With `CCOC(=O)COc1cc(C)c2c(=O)c(-c3nc(C)cs3)coc2c1`, the Ki at Adenosine receptor A2a (read-out: pKi (converted)) was 0.1 µM. Regarding `Cc1csc(-c2coc3cc(OCCN(C)C)cc(C)c3c2=O)n1`, the Ki on Adenosine receptor A2a (read-out: pKi (converted)) was 1.58 µM. `CCCCCc1cc2c(=O)c(-c3nc(C)cs3)coc2cc1O`: the Ratio Ki in the series with CHO is above 100. Also, the Ki on Adenosine receptor A2a (read-out: pKi (converted)) is 0.02 µM. `Cc1csc(-c2coc3cc(O)ccc3c2=O)n1`: at Adenosine receptor A2a (read-out: pKi (converted)), the Ki was 2 µM. Consider `CCc1cc2c(=O)c(-c3csc(C)n3)coc2cc1O`, for which the Ki on Adenosine receptor A2a (read-out: pKi (converted)) was 0.0501 µM.

In the case of `CCCc1cc2c(=O)c(-c3nc(C)cs3)coc2cc1O`, the Ki on Adenosine receptor A2a (read-out: pKi (converted)) was 0.0251 µM. Take `Cc1csc(-c2coc3cccc(C)c3c2=O)n1`: the half-life at 3 µM in series [1] turned out to be 14 min. Further, the Ki on Adenosine receptor A2a (read-out: pKi (converted)) is 0.316 µM. Regarding `CCc1cc2c(=O)c(-c3cscn3)coc2cc1O`, on Adenosine receptor A2a (read-out: pKi (converted)), the Ki was 1.58 µM. With `Cc1csc(-c2coc3cc(OCC4CC4)cc(C)c3c2=O)n1`, the Ratio Ki in the series on CHO is above 100. In series [1], this compound yielded a half-life at 3 µM of 18 min. Moreover, the Ki at Adenosine receptor A2a (read-out: pKi (converted)) was 0.0794 µM. As for `CC(=O)Oc1cc(C)c2c(=O)c(-c3nc(C)cs3)coc2c1`, the Ratio Ki with CHO stood at 13. Moreover, the Ki at Adenosine receptor A2a (read-out: pKi (converted)) was 0.0316 µM. With `Cc1csc(-c2c(C)oc3cc(O)ccc3c2=O)n1`, at Adenosine receptor A2a (read-out: pKi (converted)), the Ki was 7.94 µM. As for `CCOc1cc2occ(-c3nc(C)cs3)c(=O)c2cc1CC`, the half-life at 3 µM in series [1] was 16 min. For the same compound, the concentration for half-maximal inhibition (IC50) at Adenosine receptor A3 and at Adenosine receptor A2b was above 10 µM throughout. The Ki was above 10 µM on Adenosine receptor A3; above 10 µM at Adenosine receptor A2b; 5 µM at Adenosine receptor A1; 0.04 µM on Adenosine receptor A2a (read-out: Ki); 0.0398 µM on Adenosine receptor A2a (read-out: pKi (converted)).
